Laboratory results from patent US11673877B2 (priority 2017, dated 2023).
In brackets after ≈: the same amount, converted by molar mass. Read-outs that look alike come from different tables or passages of the source.

What was measured:
[1] = physchem; settings: aqueous solution, aqueous buffer
[2] = system: PARP; settings: read-out: inhibition of PARP activity EC50; whole cell assay; cited from earlier work
[3] = system: cancer cells with mutant BRCA-1 and BRCA-2; settings: read-out: inhibition of proliferation CC50; cited from earlier work
[4] = solid form, no method given
[5] = for hygroscopicity from DVS curve: 5 to 95% RH; for solid form by XRPD after the DVS experiment: after adsorption/desorption cycle 5-95-5% RH
Protocol: DVS analyses were carried out TA Instruments Q5000 Dynamic Vapor Sorption analyzer. The instrument was calibrated with standard weights and a sodium bromide standard for humidity. Samples were analyzed at 25° C. with a maximum equilibration time of 60 minutes in 10% relative humidity (RH) steps from 5 to 95% RH (adsorption cycle) and from 95 to 5% RH (desorption cycle).
After the experiment the samples were analyzed by XRPD.

[6] = for water activity at which the form is the preferred form: slurry in water/DMSO mixtures, 2 days
Protocol: Powder samples were prepared in a low background Si holder using light manual pressure to keep the sample surfaces flat and level with the reference surface of the sample holder. Each sample was analyzed from 2 to 40° 2θ using a continuous scan of 6° 2θ per minute with an effective step size of 0.02° 2θ. Unless otherwise noted, XPRD studies were performed at room temperature and room humidity.
Slurry experiments designed to provide a range of water activities were carried out in solvent mixtures containing water and dimethylsulfoxide (Table 1). […] The samples were analyzed while wet to avoid changes, such as the hydrate converting to the anhydrate, from drying.

## NC(=O)c1cccc2cn(-c3ccc([C@@H]4CCCNC4)cc3)nc12 [Niraparib, 2-{4-[(3S)-piperidin-3-yl]phenyl}-2H-indazole-7-carboxamide]
[1]
  solubility: 700 to 1100 µg/mL (≈ 2180 to 3430 µM)
[2]
  EC50: […]
[3]
  CC50: 10 to 100 nM

## NC(=O)c1cccc2cn(-c3ccc([C@@H]4CCCNC4)cc3)nc12 [2-{4-[(3S)-piperidin-3-yl]phenyl}-2H-indazole-7-carboxamide, reference compound]
[4]
  hygroscopicity: highly hygroscopic

## NC(=O)c1cccc2cn(-c3ccc([C@@H]4CCCNC4)cc3)nc12 [Form III, 2-{4-[(3S)-piperidin-3-yl]phenyl}-2H-indazole-7-carboxamide]
[5]; 25° C.
  hygroscopicity from DVS curve: very hygroscopic
[5]
  solid form by XRPD after the DVS experiment: converted to the monohydrate
[5]; up to 95% RH, 25° C.
  DVS weight gain: approximately 15.8%
[6]
  water activity at which the form is the preferred form: ≤ 0.11

## Cc1ccc(S(=O)(=O)O)cc1.NC(=O)c1cccc2cn(-c3ccc([C@@H]4CCCNC4)cc3)nc12 [niraparib tosylate, 2-{4-[(3S)-piperidin-3-yl]phenyl}-2H-indazole-7-carboxamide tosylate]
[6]; 0 % water in DMSO, water activity 0, 2 days
  XRPD Result: anhydrate
[6]; 17.2 % water in DMSO, water activity 0.22, 2 days
  XRPD Result: hydrate
[6]; 27.6 % water in DMSO, water activity 0.38, 2 days
  XRPD Result: hydrate
[6]; 43.3 % water in DMSO, water activity 0.60, 2 days
  XRPD Result: hydrate
[6]; 82.8 % water in DMSO, water activity 0.84, 2 days
  XRPD Result: hydrate
[6]; 100.0 % water, water activity 1.00, 2 days
  XRPD Result: hydrate

## Cc1ccc(S(=O)(=O)O)cc1.NC(=O)c1cccc2cn(-c3ccc([C@@H]4CCCNC4)cc3)nc12 [Niraparib tosylate monohydrate, 2-{4-[(3S)-piperidin-3-yl]phenyl}-2H-indazole 7-carboxamide 4-methylbenzenesulfonate hydrate (1:1.1)]
[5]; 25° C.
  hygroscopicity from DVS curve: not hygroscopic
[5]
  solid form by XRPD after the DVS experiment: remained unchanged
[6]
  water activity at which the form is the preferred form: ≥ 0.22
[4]
  hygroscopicity: non-hygroscopic
